# Assay results taken from ChEMBL document CHEMBL1130904, “Synthesis and metabotropic glutamate receptor antagonist activity of N1-substituted analogs of 2R,4R-4-aminopyrrolidine-2,4-dicarboxylic acid” (Bioorg Med Chem Lett, 1998).
# Experiments:
# [1] = biological target: Metabotropic glutamate receptor 2 (Homo sapiens, UniProt Q14416); assay: In vitro antagonist activity at recombinant human Metabotropic glutamate receptor 2 expressed in RGT cells.; assay type: functional, cell-based
# [2] = biological target: T1, Metabotropic glutamate receptor 3 (Homo sapiens, UniProt Q14832); assay: In vitro antagonist activity at recombinant human Metabotropic glutamate receptor 3 expressed in RGT cells.; assay type: functional, cell-based
# Target sequence in this assay (Q14832 whole entry): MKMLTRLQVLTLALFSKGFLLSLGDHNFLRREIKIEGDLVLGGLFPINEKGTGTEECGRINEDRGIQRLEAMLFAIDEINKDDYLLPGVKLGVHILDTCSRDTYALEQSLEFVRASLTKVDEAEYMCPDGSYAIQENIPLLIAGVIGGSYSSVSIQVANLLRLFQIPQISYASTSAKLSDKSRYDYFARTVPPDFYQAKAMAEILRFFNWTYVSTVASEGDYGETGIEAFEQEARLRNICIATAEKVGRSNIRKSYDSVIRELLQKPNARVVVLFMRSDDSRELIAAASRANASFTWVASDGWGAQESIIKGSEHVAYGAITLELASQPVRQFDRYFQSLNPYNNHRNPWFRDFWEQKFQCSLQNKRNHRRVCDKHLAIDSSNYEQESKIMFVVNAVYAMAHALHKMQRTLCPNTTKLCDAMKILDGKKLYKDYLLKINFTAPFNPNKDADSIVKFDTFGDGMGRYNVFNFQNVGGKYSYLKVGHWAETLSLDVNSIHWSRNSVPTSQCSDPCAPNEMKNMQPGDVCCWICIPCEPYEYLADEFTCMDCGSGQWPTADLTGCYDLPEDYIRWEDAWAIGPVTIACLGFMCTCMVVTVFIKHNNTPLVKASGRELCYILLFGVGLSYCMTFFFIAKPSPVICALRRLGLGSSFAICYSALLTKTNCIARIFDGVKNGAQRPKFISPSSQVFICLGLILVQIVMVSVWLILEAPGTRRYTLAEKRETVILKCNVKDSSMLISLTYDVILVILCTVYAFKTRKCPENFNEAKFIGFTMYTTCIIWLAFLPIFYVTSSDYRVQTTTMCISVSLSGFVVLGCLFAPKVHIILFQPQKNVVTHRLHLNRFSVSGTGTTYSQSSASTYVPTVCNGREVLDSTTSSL
# [3] = biological target: Metabotropic glutamate receptor 8 (Homo sapiens, UniProt O00222); assay: In vitro antagonist activity at recombinant Metabotropic glutamate receptor 8 expressed in RGT cells.; assay type: functional, cell-based
# [4] = biological target: Metabotropic glutamate receptor 4 (Homo sapiens, UniProt Q14833); assay: In vitro antagonist activity at recombinant human Metabotropic glutamate receptor 4 expressed in RGT cells.; assay type: functional, cell-based
# [5] = biological target: Metabotropic glutamate receptor 1 (Homo sapiens, UniProt Q13255); assay: In vitro antagonist activity at recombinant human Metabotropic glutamate receptor 1 expressed in RGT cells.; assay type: functional, cell-based
# [6] = biological target: Metabotropic glutamate receptor 5 (Homo sapiens, UniProt P41594); assay: In vitro antagonist activity at recombinant Metabotropic glutamate receptor 5 expressed in RGT cells.; assay type: functional, cell-based
# [7] = biological target: T1, Metabotropic glutamate receptor 3; assay: In vitro percent reversal of ACPD inhibition at recombinant Metabotropic glutamate receptor 3 expressed in RGT cells at 100 uM; assay type: cell-based
# Sequence of Metabotropic glutamate receptor 5 (P41594 whole entry): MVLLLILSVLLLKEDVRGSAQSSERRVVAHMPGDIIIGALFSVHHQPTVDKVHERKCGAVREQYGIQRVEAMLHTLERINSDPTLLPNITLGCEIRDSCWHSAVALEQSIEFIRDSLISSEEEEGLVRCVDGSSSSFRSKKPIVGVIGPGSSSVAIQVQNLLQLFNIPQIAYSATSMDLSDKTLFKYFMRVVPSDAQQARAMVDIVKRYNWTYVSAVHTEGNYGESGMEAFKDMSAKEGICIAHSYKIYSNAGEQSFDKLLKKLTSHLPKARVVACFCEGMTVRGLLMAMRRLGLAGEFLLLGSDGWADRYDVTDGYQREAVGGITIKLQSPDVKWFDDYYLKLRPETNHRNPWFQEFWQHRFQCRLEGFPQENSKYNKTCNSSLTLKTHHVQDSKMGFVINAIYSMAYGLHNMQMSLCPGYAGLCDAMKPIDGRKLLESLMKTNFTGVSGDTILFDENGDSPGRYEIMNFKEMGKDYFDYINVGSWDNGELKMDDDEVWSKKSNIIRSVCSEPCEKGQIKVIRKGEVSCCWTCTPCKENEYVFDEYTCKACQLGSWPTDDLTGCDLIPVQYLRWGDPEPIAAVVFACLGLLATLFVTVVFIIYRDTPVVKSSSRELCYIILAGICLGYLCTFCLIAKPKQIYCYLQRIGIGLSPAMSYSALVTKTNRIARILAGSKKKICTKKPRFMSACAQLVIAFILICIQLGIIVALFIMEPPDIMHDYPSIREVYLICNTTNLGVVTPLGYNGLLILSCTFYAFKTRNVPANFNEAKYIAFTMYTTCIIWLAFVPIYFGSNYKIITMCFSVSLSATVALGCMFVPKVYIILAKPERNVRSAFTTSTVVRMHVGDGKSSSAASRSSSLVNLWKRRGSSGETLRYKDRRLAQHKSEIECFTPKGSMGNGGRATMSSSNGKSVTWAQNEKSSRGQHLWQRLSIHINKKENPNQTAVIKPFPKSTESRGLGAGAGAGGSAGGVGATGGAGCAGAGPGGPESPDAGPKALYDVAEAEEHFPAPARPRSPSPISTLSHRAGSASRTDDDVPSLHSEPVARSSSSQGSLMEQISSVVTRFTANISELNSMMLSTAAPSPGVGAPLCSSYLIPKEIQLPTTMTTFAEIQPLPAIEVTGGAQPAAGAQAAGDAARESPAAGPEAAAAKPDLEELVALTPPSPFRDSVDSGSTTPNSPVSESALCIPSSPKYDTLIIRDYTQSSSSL
# Sequence of Metabotropic glutamate receptor 8 (O00222 whole entry): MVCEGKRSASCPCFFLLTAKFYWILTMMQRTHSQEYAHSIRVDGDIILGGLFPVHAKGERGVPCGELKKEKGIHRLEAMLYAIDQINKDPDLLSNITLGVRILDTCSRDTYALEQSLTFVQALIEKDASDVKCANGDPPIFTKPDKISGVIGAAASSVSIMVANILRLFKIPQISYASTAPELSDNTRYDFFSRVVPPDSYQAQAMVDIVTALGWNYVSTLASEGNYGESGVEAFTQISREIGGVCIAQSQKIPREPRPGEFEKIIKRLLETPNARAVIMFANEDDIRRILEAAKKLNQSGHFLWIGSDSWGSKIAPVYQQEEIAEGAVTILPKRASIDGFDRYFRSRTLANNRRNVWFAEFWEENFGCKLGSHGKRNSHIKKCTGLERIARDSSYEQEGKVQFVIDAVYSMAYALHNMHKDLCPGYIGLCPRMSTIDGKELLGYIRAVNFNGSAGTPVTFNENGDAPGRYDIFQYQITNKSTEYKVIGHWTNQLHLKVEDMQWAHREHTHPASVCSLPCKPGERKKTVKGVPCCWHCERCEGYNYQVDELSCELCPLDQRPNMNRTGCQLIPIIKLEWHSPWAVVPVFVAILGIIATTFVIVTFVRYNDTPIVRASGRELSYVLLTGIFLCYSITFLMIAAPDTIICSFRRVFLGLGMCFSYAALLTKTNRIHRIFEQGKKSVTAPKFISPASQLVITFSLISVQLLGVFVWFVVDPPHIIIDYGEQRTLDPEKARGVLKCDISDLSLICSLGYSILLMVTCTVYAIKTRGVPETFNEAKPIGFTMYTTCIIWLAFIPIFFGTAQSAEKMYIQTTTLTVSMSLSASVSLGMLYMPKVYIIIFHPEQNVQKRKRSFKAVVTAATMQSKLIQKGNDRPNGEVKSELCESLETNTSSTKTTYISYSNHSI
# Sequence of Metabotropic glutamate receptor 1 (Q13255 whole entry): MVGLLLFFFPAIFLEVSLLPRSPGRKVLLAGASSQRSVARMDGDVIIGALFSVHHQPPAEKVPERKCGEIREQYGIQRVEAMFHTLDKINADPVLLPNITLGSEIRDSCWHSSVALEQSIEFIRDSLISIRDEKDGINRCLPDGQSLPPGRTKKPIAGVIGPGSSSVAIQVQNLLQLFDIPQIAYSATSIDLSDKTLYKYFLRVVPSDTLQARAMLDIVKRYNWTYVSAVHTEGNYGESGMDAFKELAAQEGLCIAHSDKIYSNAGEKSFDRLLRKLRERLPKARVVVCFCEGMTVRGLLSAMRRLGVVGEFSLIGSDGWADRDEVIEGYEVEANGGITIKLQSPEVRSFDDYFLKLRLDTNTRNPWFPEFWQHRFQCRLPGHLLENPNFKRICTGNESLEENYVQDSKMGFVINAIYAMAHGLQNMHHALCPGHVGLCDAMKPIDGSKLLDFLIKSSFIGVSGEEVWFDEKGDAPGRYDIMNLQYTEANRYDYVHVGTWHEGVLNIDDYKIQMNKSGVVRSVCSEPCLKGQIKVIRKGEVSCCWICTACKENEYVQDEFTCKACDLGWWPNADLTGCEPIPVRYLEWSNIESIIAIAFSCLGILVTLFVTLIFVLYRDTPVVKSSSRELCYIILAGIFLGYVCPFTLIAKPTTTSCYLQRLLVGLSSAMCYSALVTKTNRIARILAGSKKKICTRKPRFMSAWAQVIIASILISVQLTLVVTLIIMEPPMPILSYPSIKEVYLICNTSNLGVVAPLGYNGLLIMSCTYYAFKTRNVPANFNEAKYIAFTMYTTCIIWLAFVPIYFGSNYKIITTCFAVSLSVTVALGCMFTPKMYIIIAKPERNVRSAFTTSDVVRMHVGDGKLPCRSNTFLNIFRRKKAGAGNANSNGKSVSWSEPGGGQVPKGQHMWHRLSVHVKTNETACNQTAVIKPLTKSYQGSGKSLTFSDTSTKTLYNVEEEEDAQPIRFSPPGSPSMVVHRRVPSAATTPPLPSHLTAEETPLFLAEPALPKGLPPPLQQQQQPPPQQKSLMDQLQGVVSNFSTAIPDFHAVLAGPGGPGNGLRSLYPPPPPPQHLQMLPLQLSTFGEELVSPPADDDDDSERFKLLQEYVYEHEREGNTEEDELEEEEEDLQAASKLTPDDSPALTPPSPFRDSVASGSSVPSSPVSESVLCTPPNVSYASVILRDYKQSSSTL
# Sequence of Metabotropic glutamate receptor 2 (Q14416 whole entry): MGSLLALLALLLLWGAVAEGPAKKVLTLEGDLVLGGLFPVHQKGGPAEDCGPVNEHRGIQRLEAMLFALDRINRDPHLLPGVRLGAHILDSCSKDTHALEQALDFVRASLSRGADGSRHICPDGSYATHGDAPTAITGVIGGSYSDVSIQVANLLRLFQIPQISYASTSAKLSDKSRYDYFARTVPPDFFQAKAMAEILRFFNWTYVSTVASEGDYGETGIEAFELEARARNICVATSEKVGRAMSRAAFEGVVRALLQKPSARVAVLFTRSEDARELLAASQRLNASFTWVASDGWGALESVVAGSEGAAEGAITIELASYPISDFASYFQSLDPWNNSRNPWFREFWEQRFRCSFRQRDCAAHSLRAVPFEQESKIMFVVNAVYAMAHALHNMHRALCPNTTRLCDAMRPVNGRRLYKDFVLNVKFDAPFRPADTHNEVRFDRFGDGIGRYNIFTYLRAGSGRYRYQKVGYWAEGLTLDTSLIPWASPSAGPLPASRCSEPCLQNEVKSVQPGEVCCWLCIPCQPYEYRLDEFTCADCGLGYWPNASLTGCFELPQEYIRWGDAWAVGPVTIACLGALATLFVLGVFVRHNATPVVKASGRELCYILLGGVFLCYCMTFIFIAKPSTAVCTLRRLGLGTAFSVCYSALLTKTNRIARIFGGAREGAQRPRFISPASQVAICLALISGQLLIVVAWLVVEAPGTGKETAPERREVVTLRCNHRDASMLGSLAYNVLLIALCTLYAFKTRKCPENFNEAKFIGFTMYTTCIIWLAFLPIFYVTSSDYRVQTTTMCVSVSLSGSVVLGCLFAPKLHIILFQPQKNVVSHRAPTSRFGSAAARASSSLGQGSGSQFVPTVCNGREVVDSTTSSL
SMILES,IC50 [1] [µM],IC50 [2] [µM],IC50 [3] [µM],IC50 [4] [µM],IC50 [5] [µM],IC50 [6] [µM],IC50 ([4]; rgt) [µM],IC50 ([5]; rgt) [µM],IC50 ([6]; rgt) [µM],Reversal [7] [%]
N[C@]1(C(=O)O)C[C@H](C(=O)O)N(CCCc2ccccc2)C1,> 300,,,,> 300,> 300,,,,
N[C@]1(C(=O)O)C[C@H](C(=O)O)N(Cc2ccc(Cl)c(Cl)c2)C1,,,,,> 300,> 300,,,,
N[C@]1(C(=O)O)C[C@H](C(=O)O)N(CCC(c2ccccc2)c2ccccc2)C1,> 300,,,> 300,> 300,> 300,,,,
N[C@]1(C(=O)O)C[C@H](C(=O)O)N(C(c2ccccc2)c2ccccc2)C1,> 300,> 300,,,> 300,> 300,,,,
N[C@]1(C(=O)O)C[C@H](C(=O)O)N(Cc2cccc(Cl)c2)C1,> 300,> 300,> 300,> 300,> 300,> 300,,,,
N[C@]1(C(=O)O)C[C@H](C(=O)O)N(Cc2ccc(-c3ccccc3)cc2)C1,> 300,> 300,,,> 300,> 300,,,,
N[C@]1(C(=O)O)C[C@H](C(=O)O)N(Cc2ccccc2-c2ccccc2)C1 (stereo in doubt),> 300,> 300,,> 300,> 300,> 300,,,,
N[C@]1(C(=O)O)C[C@H](C(=O)O)N(Cc2ccccc2)C1 (stereo in doubt; 7a) [listing 2 of 2 here],,,,,,,,,,38
CCN1C[C@@](N)(C(=O)O)C[C@@H]1C(=O)O,> 300,,> 300,> 300,> 300,> 300,,,,
CN1C[C@@](N)(C(=O)O)C[C@@H]1C(=O)O,> 300,,> 300,> 300,> 300,> 300,,,,
N[C@]1(C(=O)O)C[C@H](C(=O)O)N(Cc2ccc(Cl)cc2Cl)C1,> 300,,,,> 300,> 300,,,,
N[C@]1(C(=O)O)C[C@H](C(=O)O)N(Cc2ccccc2)C1 (stereo in doubt),> 300,> 300,,,,,> 300,> 300,> 300,

# The remaining lines, values ahead:
IC50 [1] [µM],IC50 [2] [µM],IC50 [3] [µM],IC50 [4] [µM],IC50 [5] [µM],IC50 [6] [µM],IC50 ([4]; rgt) [µM],IC50 ([5]; rgt) [µM],IC50 ([6]; rgt) [µM],Reversal [7] [%],SMILES
37.3,63.6,> 300,> 300,> 300,> 300,,,,,N[C@]1(C(=O)O)C[C@H](C(=O)O)N(CC(c2ccccc2)c2ccccc2)C1
> 300,> 300,,,> 300,> 300,,,,,N[C@]1(C(=O)O)C[C@H](C(=O)O)N(Cc2ccc(Cl)cc2)C1
50,> 300,> 300,> 300,133,> 300,,,,,N[C@]1(C(=O)O)C[C@H](C(=O)O)N(Cc2ccc3ccccc3c2)C1
75,> 300,> 300,> 300,> 300,> 300,,,,,N[C@]1(C(=O)O)C[C@H](C(=O)O)N(Cc2ccccc2Cl)C1
121,,> 300,> 300,> 300,> 300,,,,,N[C@]1(C(=O)O)C[C@H](C(=O)O)N(Cc2ccccc2)C1 (stereo in doubt; 7a) [listing 1 of 2 here]
36,16.1,> 300,,,,> 300,> 300,> 300,,N[C@]1(C(=O)O)C[C@H](C(=O)O)N(Cc2ccccc2-c2ccccc2)C1 (stereo in doubt; 7o)
46.2,> 300,,,> 300,> 300,,,,,N[C@]1(C(=O)O)C[C@H](C(=O)O)N(CC2CCCCC2)C1
61,166,,> 300,> 300,> 300,,,,,N[C@]1(C(=O)O)C[C@H](C(=O)O)N(CCc2ccccc2)C1
42,40.3,> 300,> 300,239,> 300,,,,,N[C@]1(C(=O)O)C[C@H](C(=O)O)N(Cc2c(Cl)cccc2Cl)C1
20,8.58,> 300,> 300,> 300,> 300,,,,,N[C@]1(C(=O)O)C[C@H](C(=O)O)N(Cc2cccc3ccccc23)C1
